Data reported in US20240041878A1, “APELIN RECEPTOR MODULATORS FOR TREATMENT OF A DISORDER OR DISEASE ASSOCIATED WITH BBB PERMEABILITY” (BioAge Labs, Inc., priority 2022, published 2024).

Legend:
[1] = tested on: NF-κB activation and IκBα phosphorylation in astrocytes; assay: Western blot of NF-κB p65 and p-IκBα/t-IκBα in astrocytes; assay type: cell-based, mouse
Description: To stimulate astrocytes into a reactive state found in aging and neurodegenerative diseases per previous publications (Liddelow et al., 2017; Barbar et al., 2020), a combination of the cytokines TNF-α and IL-1α, and complement factor C1q, were added at 30 ng/mL, 3 ng/mL, and 400 ng/mL, respectively, into astrocyte culture media to make ‘reactive astrocyte cocktail’ (RAC) media. Astrocytes were cultured in RAC media for 24 hours, with or without various concentrations of BGE-105 (10 nM, 50 nM, 250 nM final concentration), (Pyr^1)-Apelin-13 (50 nM; Bachem, Cat. #4029110), BAY-11-7082 (50 μM; Abcam, Cat. #ab141228) or equal volume of vehicle (0.01% DMSO in PBS) (hereafter referred to as ‘RAC treatment’). […]
For analysis of astrocyte protein expression, cells were washed after RAC treatment with PBS and lysed with Neuronal Protein Extraction Reagent (Thermo Scientific, Cat. #87792), centrifuged to pellet debris, and supernatant was transferred to a new tube. Total protein concentration was measured by BCA protein assay (Thermo Scientific, Cat. #PI23227).

SOD1^G93A mice = assay: ICV administration in SOD1^G93A mouse model of ALS; assay type: in vivo; settings: ICV via Alzet minipumps, 1 month
Description: The study accesses the effects of BGE-105 in a mouse model of ALS. The study establishes pharmacokinetic/pharmacodynamic features of intracerebroventricular (ICV) administration of BGE-105 in wildtype C57BL/6J mice. Multiple doses across multiple timepoints are tested to determine drug characteristics within the central nervous system (CNS). BGE-105 is administered to SOD1^G93A mice using Alzet minipumps connected to ICV cannulas.
Astrocyte reactivity, driven by IL-la/TNFα/C1q-mediated neurotoxicity, contributes to spinal cord motor neuron death and motor dysfunction in mouse models of ALS. […] This study first validates intraventricular administration of BGE-105 into wildtype mice to establish CNS-specific drug properties and guide optimal dose selection. Next, the efficacy of CNS delivery of BGE-105 to minimize motor neuron death, improve motor function, and extend lifespan in the SOD1^G93A mouse model of ALS is tested. For experiments in vivo, BGE-105 are administered to SOD1^G93A mice using Alzet minipumps. Alzet minipumps are implanted at 4 months of age, followed by 1 month of continuous administration of BGE-105.
Analyses of motoric, behavioral, and survival endpoints are measured. Brain, spinal cord, and skeletal muscle are dissected post mortem for histochemical and transcriptomic analyses to determine target engagement and mechanisms of action.
Alzet minipumps connected to intraventricular cannulas are utilized for continuous CNS delivery of BGE-105, akin to previous studies on APJ agonism in the CNS (Zhu et al., 2020. Apelin-36 mediates neuroprotective effects by regulating oxidative stress, autophagy and apoptosis in MPTP-induced Parkinson's disease model mice, Brain Research, Volume 1726, 2020, 146493, ISSN 0006-8993). 4-month-old SOD1^G93A mice (C57BL/6J background; strain #004435, Jackson Laboratory) of both sexes (n=12/group; 6 male, 6 female) are randomized into vehicle or two separate treatment groups before undergoing baseline motor behavior assessments including the open field, grid hang, beam walk, and accelerating rotarod. […]

COc1cccc(OC)c1-n1c(NS(=O)(=O)[C@@H](C)[C@H](C)c2ncc(C)cn2)nnc1-c1cncc(C)c1 [BGE-105, (2S,3R)—N-(4-(2,6-dimethoxyphenyl)-5-(5-methyl-3-pyridinyl)-4H-1,2,4-triazol-3-yl)-3-(5-methyl-2-pyrimidinyl)-2-butanesulfonamide]
ratio of p-IκBα/tIκBα expression normalized to β-actin ([1]; RAC+BGE105 (50 nM) versus RAC): significantly reduced
NF-κB p65 expression normalized to β-actin ([1]; RAC+BGE-105 (50 nM) versus RAC): significantly reduced
lifespan (SOD1^G93A mice): extends lifespan
motor function (SOD1^G93A mice): improves motor function
motor neuron death (SOD1^G93A mice): minimizes motor neuron death
